PMC13534789, “Molecular Glue Degraders Enhance CAPRIN1‐Dependent Lysosomal Degradation of APP and Reduce Amyloid β in Alzheimer's Disease” (Advanced Science, 2026)

Legend:
Aβ42 = Aβ42 ELISA of conditioned media, HEK-APP695WT cells; format: cell-based, human; settings: 72 h
Procedure: iPSC‐Ns or HEK‐APP695WT were treated with drugs, and secreted Aβ42 peptides inculture soup were quantified using the Human Amyloid β1‐42 human ELISA kit (Thermo Fisher) according to the manufacturer's protocol. Mouse brain extraction was performed as previously described, with minor modifications. Mouse brain tissues were homogenized at a 1:10 weight‐to‐volume ratio in Tris‐buffered saline (TBS; 50 mM Tris, pH 7.4, 150 mM NaCl) supplemented with 2 mM EDTA and protease inhibitors. TBS‐homogenized brains were centrifuged for 1 h at 16 000 g. To extract total Aβ, including insoluble fractions, formic acid was added to a final concentration of 70%, and the samples were thoroughly mixed by pipetting. […] Prior to quantification, formic acid‐containing samples were neutralized with 1 M Tris base (pH 11). Aβ40 and Aβ42 levels were measured using human‐specific ELISA kits (Invitrogen) and normalized to total protein concentrations determined by the BCA assay (Thermo Scientific). For Aβ quantification in 3D organoids, 3D organoids’ processing and ELISA analysis were performed with minor modifications from previously described protocols. […] Aβ42 levels in both fractions were measured using human‐specific ELISA kits (Thermo Fisher) according to the manufacturer's instructions. […] Aβ levels were normalized to total protein concentration determined by BCA assay.

3R‐APP695‐HiBiT = target: T1, 3R‐APP695‐HiBiT (Homo sapiens, UniProt P05067, K724R/K725R/K726R); experiment: HiBiT luminescence and Aβ42 ELISA in 3R-APP695-HiBiT HEK cells; format: cell-based; settings: KKK motif K649–K651 replaced by arginines, 72 h
T1 construct: expressed in transfected cells
Excerpt: To validate this interaction, we co‐expressed the C‐terminal domain of APP (HiBiT‐tagged C99) and the N‐terminus of FLAG‐tagged CAPRIN1 (residues 1–250) in HEK cells. Flag IP followed by western blotting confirmed the interaction between CAPRIN1 and APP (Figure 4H). To further delineate the interaction interface, we focused on a lysine‐rich (KKK) motif (K649–K651) within APP as a potential CAPRIN1‐interacting region, given its location within the cytosolic domain of C99 and its enrichment in basic residues that may mediate protein–protein interactions. To assess the functional relevance of this interaction in compound activity, we generated an APP695‐3R mutant, replacing the KKK motif (K649‐K651) with arginines by site‐directed mutagenesis. […] To further assess the role of this motif in APP‐CAPRIN1 interaction, we performed co‐immunoprecipitation experiments comparing WT‐ and 3R‐APP695‐HiBiT.
HEK293 cells were purchased from the American Type Culture Collection (ATCC). Lentiviral plasmids (pLV‐Hygro‐CMV‐hAPP, pLV‐Hygro‐CMV‐hAPP‐Hibit, and pLV‐Hygro‐CMV‐hAPP ‐3K to 3R‐Hibit) for APP695WT HEK293 and APP695‐Hibit HEK293 were generated in the third‐generation plasmid. […] Once expanded, clones were analyzed by ELISA for amyloid beta 42 (Aβ42), western blot for APP expression, and Hibit‐lytic assay (Promega). […]

CAPRIN1 and APP = target: T2, CAPRIN1 and APP (Homo sapiens, UniProt P05067+Q14444); experiment: Streptavidin pull-down with biotinylated 0152 in AG27606-N lysates; format: binding
T2 construct: endogenous in cells; host or cells: AG27606-Ns, sAD2.3-Ns (iPSC-derived neurons) and their lysates

[1] = Tolerability and body weight in 5xFAD mice; format: in vivo
Excerpt: Female 5xFAD transgenic mice (9–10 weeks old) were used to evaluate the efficacy of 0152 in reducing amyloid pathology. Mice were housed under Indiana University standard laboratory conditions. For intraperitoneal (IP) administration, mice received either vehicle or 0152 (indicated concentrations) in a formulation consisting of 20% DMSO, 20% Cremophor EL, and 60% PBS. For oral (PO) administration, mice received either vehicle or 0152 (indicated concentrations) in a formulation consisting of 10% NMP (N‐methyl‐2‐pyrrolidone), 10% PG (Propylene Glycol), 5% Solutol HS‐15, and 75% Captisol (10% w/v in RO water). At the end of the treatment period, mice were sacrificed, and their brains were collected for histological analysis. Brain tissues were fixed in 10% Formalin, embedded in paraffin, and sectioned. Thioflavin S staining was performed to visualize β‐sheet‐rich amyloid plaques, and immunohistochemistry was conducted using the 6E10 monoclonal antibody to detect Aβ plagues. Body weights were recorded daily throughout the study.

Compound	Aβ42 in conditioned media (Aβ42; 10 µM)	Extracellular Aβ42 (ELISA) (Aβ42; increasing concentrations)	Response of 3R-APP695-HiBiT cells (HiBiT luminescence, Aβ42 ELISA) (3R‐APP695‐HiBiT)	Competition of the 0152-biotin pull-down by excess free compound (CAPRIN1 and APP)	Tolerability, body weight ([1]; 80 mg/kg IP twice per day, 30 days)	Body weight ([1]; 80 mg/kg oral gavage twice daily, 30 days)	Tolerability (lethargy, ataxia, paralysis, seizures, weight loss) ([1]; 100 mg/kg IP daily, 24 days)
N#Cc1cccc(NC(=O)Nc2nc3ccc(C(=O)N4CCOCC4)cc3s2)c1 [compound 0043]	most potent in reducing Aβ42	reduced intracellular APP and extracellular Aβ42 levels in a dose‐dependent manner	–	–	–	–	–
COc1cccc(NC(=O)Nc2nc3ccc(C(=O)N4CCOCC4)cc3s2)c1 [compound 0152]	–	–	no response	competitively inhibited	well tolerated with no weight loss	no observed weight loss	tolerated treatment well
